These are literature values, as cited in paper PMC9371267 (PLoS Biology, 2022).

One data set relates to GALRs. To be noted: Trp2 replaced with alanine; ref [4]; cited from earlier work. The text has this:
(§1) Activated GPCRs act as nucleotide exchange factors through direct interactions with heterotrimeric G-proteins. The C-terminal helix of mGαqiN fits into a hydrophobic pocket formed by TM 5–7 of GALR2 (Fig 1B). Phe228, Ile235, Asn239, and Tyr243 of mGαqiN form the principal interface with GALR2, and a salt bridge forms between Glu135^ICL2 of GALR2 and Arg32 of mGαqiN (Fig 1B). […] The modeled fra ...

Another data set has as its system GALR2. The note with it: endogenous ligands; ref [13]; cited from earlier work.
Text: as §1

Another data set concerns GALR2 vs GALR1. The note with it: GALR2 over GALR1; ref [3]–[5]; cited from earlier work. An excerpt: Its GPCR family receptors (from GALR1 to GALR3) are associated with different disease states and have been used as markers for certain cancer types. […] Agonists for GALR2 are be ...
The test system of the next data set is GALR2 and GALR3 vs GALR1. The note with it: ref [3],[14]; cited from earlier work. An excerpt: Phe264 and Leu266 in ECL3 contact Leu10^P and Trp2^P ...

Consider “Trp2^P of galanin with alanine: galanin with Trp2^P replaced with alanine (GATLNSAGYLLGPHAVGNHRSFSDKNGLTS; Galanin; UniProt P22466 33-62, looked up, variant W2A)”, for which, in the data set on GALRs, the “binding to GALRs” value was “prevents binding to GALRs”.
Turning to “galanin-like peptide (APAHRGRGGWTLNSAGYLLGPVLHLPQMGDQDGKRETALEILDLWKAIDGLPYSHPPQPS; Galanin-like peptide; UniProt Q9UBC7 25-84, looked up) [GALP]”, the “activation of GALR2” value with GALR2 is on record as “activate GALR2”.
With “galanin^2–11: truncated peptide galanin^2–11”, the “binds to GALR2 more tightly than GALR1” value in the data set on GALR2 vs GALR1 is “roughly 500 times”. The receptor specificity entry with GALR2 and GALR3 vs GALR1 is “specificity for GALR2 and GALR3 over GALR1”.

B1: spexin (peptide, UniProt Q9BT56 27-116, looked up)
Spexin: APQRLLERRNWTPQAMLYLKGAQGRRFISDQSRRKDLSDRPLPERRSPNPQLLTIPEAATILLASLQKSPEDEEKNFDQTRFLEDSLLNW
modifications: Spexin
In the case of B1, in the data set on GALR2, the “activation of GALR2” value is listed as “activate GALR2”.
